Experimental data: the NIST ThermoML archive (doi:10.1021/je4004417)
“And” between values parts separate entries of the source, which are not always exact repeats. Equal values may be shown once. Numbers after ± are expanded uncertainties.

Experiments:
[1] = Liquid, Closed cell (Static) method
[2] = refractive index (Na D-line) (dimensionless); conditions: 293.15 K; 101.33 kPa; Liquid; Standard Abbe refractometry

Row | SMILES | vapor or sublimation pressure ([1]; 343.15 K) | vapor or sublimation pressure ([1]; 363.15 K) [kPa] | vapor or sublimation pressure ([1]; 393.15 K) [kPa] | refractive index [2]
1 | O=CN1CCOCC1 [N-formylmorpholine] | 0.16 ± 0.21 kPa and 0.15 ± 0.21 kPa | 0.49 ± 0.21 | 2.18 ± 0.21 | 1.4844 ± 0.0007
2 | CCCCCCC [heptane] | 40.4 ± 0.31 kPa | 78.59 ± 0.43 | 183.7 ± 2.2 | 1.3877 ± 0.0007
3 | CCCCCC [hexane] | 105.47 ± 2.2 kPa | 190.95 ± 2.3 | 400.27 ± 2.5 | 1.3748 ± 0.0007
